Results reported in patent publication US8153630B2, “Kinase inhibitors” (Miikana Therapeutics, Inc., priority 2004, dated 2012).

Columns and labels:
HCT 116 Cells = assay: Aurora kinase whole cell cytotoxicity assay: Sulforhodamine B; assay type: cell-based; conditions: Homo sapiens, HCT116, SRB staining, 96 hours incubation
Experimental: Human tumour-derived cell lines, HCT116 or MCF7 (ATCC) were plated in a 96 well plate in DMEM containing 10% fetal bovine serum and 2 mM L-glutamine at a density of 500 HCT116 cells or 1,000 MCF7 cells per well and incubated at 37° C., 5% CO2, for 24 hours prior to the addition of experimental compounds. Compounds were added using the dilution series indicated to duplicate plates and the cells were incubated in media plus compound for 96 hours. An additional plate was fixed in 10% TCA at the time of the addition of compound to provide a measurement of the cell population at time zero, the time of drug addition. Following the 96 hour incubation, cells were fixed in situ by gently aspirating off the culture media and then adding 50 ul of ice cold 10% TCA per well and incubation at 4° C. for 60 minutes. The plates were washed with tap water five times and allowed to air dry for 5 minute. 50 ul of a 0.4% (w/v) Sulforhodamine B solution in 1% (v/v) acetic acid was added per well and the cells were incubated for 30 minutes at room temperature. Following staining, plates were washed four times with 1% acetic acid to remove any unbound dye and then allowed to air dry for 5 minutes. The stain was solubilized with 100 ul of 10 mM Tris pH 10.5 per well and placed on an orbital rotator for 5 minutes. The absorbance was read at 570 nm. Percentage growth was calculated using the absorbance readings from the time zero plate (Tz) and the dilution series plate […] which included a column of cells grown in media without compound as a control (C) using the formulas: [(Ti−Tz)/(C−Tz)]×100 for concentrations for which Ti>/=Tz [(Ti−Tz)/Tz]×100 for concentrations for which Ti<Tz.
Three dose response parameters were calculated for each experimental agent. Growth inhibition of 50% (GI50) was calculated from [(Ti−Tz)/(C−Tz)]×100=50, which was the drug concentration resulting in a 50% reduction in the net protein increase (as measured by SRB staining) in control cells during the drug incubation. The drug concentration resulting in total growth inhibition (TGI) was calculated from Ti=Tz. The LC50 (concentration of drug resulting in a 50% reduction in the measured protein at the end of the drug treatment as compared to that at the beginning) indicating a net loss of cells following treatment ws calculated from [(Ti−Tz)/Tz]×100=−50. Values are calculated for each of these three parameters if the level of activity was reached; however, if the effect was not reached or was exceeded, the value for that parameter is expressed as greater or less than the maximum or minimum concentration tested.

recombinant Aurora A = target: T1, recombinant Aurora A (Homo sapiens, UniProt O14965); assay: PanVera Z'-Lyte Aurora kinase assay; assay type: biochemical; conditions: Z'-Lyte Ser/Thr 1 peptide 2 μM, ATP 10 μM, 1 h
T1 construct: purchased Upstate, Lake Placid, N.Y
T1 sequence (O14965 1-403): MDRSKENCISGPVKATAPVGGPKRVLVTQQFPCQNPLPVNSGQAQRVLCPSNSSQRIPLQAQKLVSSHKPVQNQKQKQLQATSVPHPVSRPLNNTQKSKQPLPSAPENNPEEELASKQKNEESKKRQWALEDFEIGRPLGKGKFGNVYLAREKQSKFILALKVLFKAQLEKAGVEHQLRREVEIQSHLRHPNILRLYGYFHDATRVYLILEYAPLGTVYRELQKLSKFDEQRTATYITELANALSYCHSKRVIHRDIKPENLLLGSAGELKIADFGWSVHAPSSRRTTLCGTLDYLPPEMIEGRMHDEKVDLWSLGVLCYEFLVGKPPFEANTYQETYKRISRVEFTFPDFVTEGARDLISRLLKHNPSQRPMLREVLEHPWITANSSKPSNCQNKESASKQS
Experimental: Compounds 7-14 above were tested for their potency against recombinant Aurora A (Upstate, Lake Placid, N.Y.) using the PanVera Z'-Lyte kinase assay kit—Ser/Thr 1 peptide (Invitrogen, Carlsbad, Calif.). Assays were carried out in kinase assay buffer (50 mM HEPES, pH 7.5, 10 mM MgCl2, 5 mM EGTA, 0.05% Brij-35, 2 mM DTT). Test compounds were initially dissolved in DMSO at 100× the highest tested concentration, then serially diluted to 4× test concentrations in kinase assay buffer. Next, Aurora A (final concentration 200-500 ng/mL), Z′-Lyte Ser/Thr 1 peptide (final concentration 2 μM) and ATP (final concentration 10 μM) were added according to the manufacturer's instructions. Assays were carried out in half-area 96-well white polystyrene assay plates (Corning, Corning, N.Y.) in a final volume of 20 μL. The reaction was allowed to proceed for 1 h at room temperature in the dark, at which point the development reagent and stop reagent were added according to the manufacturer's instructions. Coumarin (Ex. 400 nm, Em. 465 nm) and fluorescein (Ex. 400 nm, Em. 565 nm) fluorescence values were measured on a SpectraFluor Plus plate reader (Tecan, Durham, N.C.). The emission ratio (coumarin/fluorescein) was determined and used to calculate the percent phosphorylation for each well. Wells containing substrate but no kinase and wells containing a phosphopeptide control were used to set 0% and 100% phosphorylation values, respectively. Typically 20-40% of the substrate was phosphorylated in wells without inhibitor. Dose-response curves of relative Aurora A activity vs. inhibitor concentration were plotted with Grafit (Erithacus Software, Horley, Surrey, UK) and used to calculate IC50 values.

Aurora B kinase = Aurora B kinase (Homo sapiens, UniProt Q96GD4); assay: Aurora B (Aurora 1) inhibition assay; assay type: biochemical; conditions: compound concentration 100 μM; ATP 50 μM, 16 h; read-out: inhibition of the Aurora B enzyme
Chain of Aurora B kinase (Q96GD4 whole entry): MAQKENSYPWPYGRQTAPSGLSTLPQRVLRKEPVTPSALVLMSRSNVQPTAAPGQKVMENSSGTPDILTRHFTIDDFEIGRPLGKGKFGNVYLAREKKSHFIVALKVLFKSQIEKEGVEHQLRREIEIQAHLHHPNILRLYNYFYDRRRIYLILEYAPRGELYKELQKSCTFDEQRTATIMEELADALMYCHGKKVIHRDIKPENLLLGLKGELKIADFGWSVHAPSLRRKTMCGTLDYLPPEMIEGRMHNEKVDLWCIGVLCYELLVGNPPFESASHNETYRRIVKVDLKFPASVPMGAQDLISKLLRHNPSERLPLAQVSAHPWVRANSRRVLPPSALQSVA

Compound `CCOC(=O)c1nc(Sc2ccc(NC(=O)C3CC3)cc2)nc(Nc2cc(C)[nH]n2)c1N` [Compound 11, Ethyl 2-(4-cyclopropanecarboxamidophenylsulfanyl)-5-amino-6-(5-methylpyrazol-3-ylamino)-4-pyrimidinecarboxylate] has a GI50 (HCT 116 Cells) of 100 to 1000 nM, an IC50 (recombinant Aurora A) of less than 100 nM and an inhibition at 100 µM (Aurora B kinase) of 100%.
